Assays:
stachydrine demethylase [1] = target: T1, stachydrine demethylase (Sinorhizobium meliloti, UniProt Q92ZP9); details: 2.3 A; pH 7 HEPES; 25 mM hexaamine CoCl2
T1 construct: gene stc2

stachydrine demethylase [2] = target: T1, stachydrine demethylase; assay: X-ray structure of co-crystal; demethylated product seen; format: binding; details: 2.3 A; pH 7 HEPES; 25 mM hexaamine CoCl2; N-methyl group cleaved on X-ray exposure, only L-proline in the density
trypsin = target: T2, trypsin (Bos taurus, UniProt P00760); assay: X-ray structure of co-crystal (fragment screen); format: binding; details: pH 7 HEPES, 10 mM CaCl2
T2 construct: gene PRSS1
T2 sequence (P00760 24-246): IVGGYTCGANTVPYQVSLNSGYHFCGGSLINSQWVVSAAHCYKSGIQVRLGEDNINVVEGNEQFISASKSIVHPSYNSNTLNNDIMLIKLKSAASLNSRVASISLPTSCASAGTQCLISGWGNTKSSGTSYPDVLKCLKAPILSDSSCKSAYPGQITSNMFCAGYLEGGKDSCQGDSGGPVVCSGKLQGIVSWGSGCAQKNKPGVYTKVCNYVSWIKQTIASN

lysozyme = target: T3, lysozyme (Gallus gallus, UniProt P00698); assay: X-ray structure of co-crystal (fragment screen); format: binding; details: pH 4.6 acetate, 4% NaCl
T3 construct: gene LYZ

O=C(O)[C@@H]1CCCN1 [L-proline]
X-ray structure of co-crystal (stachydrine demethylase [1]): When L-proline was co-crystallized with stachydrine demethylase, the L-proline was observed in the electron density

CN1CCC[C@H]1C(=O)O [N-methylproline]
X-ray structure of co-crystal; demethylated product seen (stachydrine demethylase [2]): exposure to X-rays quickly induces enzymatic cleavage of the N-methyl group, leaving behind L-proline

c1c[nH]cn1 [imidazole]
X-ray structure of co-crystal (fragment screen) (trypsin; 10 mg/ml benzamidine present, allosteric site distant from the active site): imidazole (a previously unreported allosteric binding mode that is distant from the active site; PDB entry 4ncy)

N=C(N)c1ccccc1 [benzamidine]
X-ray structure of co-crystal (fragment screen) (lysozyme): Benzamidine was also observed to bind to lysozyme, a previously unreported result (PDB entry 4n8z) | X-ray structure of co-crystal (fragment screen) (trypsin; known control): the known benzamidine ligand in the best diffracting no-hit screen

CC(=O)N[C@H]1C(O)O[C@H](CO)[C@@H](O)[C@@H]1O (stereo partly drawn) [N-acetylglucosamine]
X-ray structure of co-crystal (fragment screen) (lysozyme): The known N-acetylglucosamine ligand was easily identified in the electron density

— paper PMC4014116, “Hitting the target: fragment screening with acoustic in situ co-crystallization of proteins plus fragment libraries on pin-mounted data-collection micromeshes” (Acta Crystallographica Section D: Biological Crystallography, 2014)
